Assay results taken from US20250122174A1 (Shenzhen Yuanli Shenwan Innovative Medicine Co., Ltd., priority 2022, published 2025).
Structures can show the parent of a compound that is named as a salt.

Molecular target: HPK1 (Homo sapiens (Human), UniProt Q92918)
Assay: HPK1 Inhibition Assay (ADP-Glo kinase assay)
Format: biochemical
Settings: ATP 10 μM
Summary of the method: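 ADP-Glo luminescence read-out after 1 h room-temperature kinase reaction with 10 μM ATP and 0.1 μg/ml MBP. Recombinant human HPK1 at 7.5 ng/μl; buffer 40 mM Tris pH 7.5, 20 mM MgCl2. Compounds serially diluted 5-fold over 10 points from 10 mM DMSO stock.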

Sequence of HPK1 (Q92918 1-346 limits assumed): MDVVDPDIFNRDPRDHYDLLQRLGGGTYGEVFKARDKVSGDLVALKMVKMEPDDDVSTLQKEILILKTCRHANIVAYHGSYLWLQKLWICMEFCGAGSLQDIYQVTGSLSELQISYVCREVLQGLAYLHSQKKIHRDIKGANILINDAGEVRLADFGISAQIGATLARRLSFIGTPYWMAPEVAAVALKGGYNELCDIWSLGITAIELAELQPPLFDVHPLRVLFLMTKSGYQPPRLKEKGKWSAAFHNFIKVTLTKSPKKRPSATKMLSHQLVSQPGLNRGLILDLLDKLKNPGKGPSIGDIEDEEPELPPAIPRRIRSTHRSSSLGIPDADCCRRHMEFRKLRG

IC50 [nM]	Structure (SMILES)
< 100	NC1CCN(c2c(NC(=O)c3ccc(=O)n(-c4c(F)cccc4F)n3)ccc3c2cnn3[C@@H]2CCOC2)CC1 [Example 265, (R)-N-(4-(4-aminopiperidin-1-yl)-1-(tetrahydrofuran-3-yl)-1H-indazol-5-yl)-1-(2,6-difluorophenyl)-6-oxo-1,6-dihydropyridazine-3-carboxamide]
100 to 1000	Cn1ncc2c(N3C[C@@H]4C[C@H]3CN4)c(NC(=O)c3ccc(=O)n(-c4c(F)cccc4F)n3)ccc21 [Example 87, N-(4-((1S,4S)-2,5-diazabicyclo[2.2.1]heptan-2-yl)-1-methyl-1H-indazol-5-yl)-1-(2,6-difluorophenyl)-6-oxo-1,6-dihydropyridazine-3-carboxamide]
< 100	[2H]C([2H])([2H])C(n1ncc2c(N3C[C@@H](C)[C@@H](N)C3)c(NC(=O)c3ccc(=O)n(-c4c(F)cccc4F)n3)ccc21)C([2H])([2H])[2H] [Example 278, N-(4-((3R,4R)-3-amino-4-methylpyrrolidin-1-yl)-1-(propan-2-yl-1,1,1,3,3,3-d6)-1H-indazol-5-yl)-1-(2,6-difluorophenyl)-6-oxo-1,6-dihydropyridazine-3-carboxamide]
< 100	Cc1nc2c(N3CCC(N)CC3)c(NC(=O)c3ccc(=O)n(-c4c(F)cccc4F)n3)ccc2n1C [Example 74, N-(4-(4-aminopiperidin-1-yl)-1,2-dimethyl-1H-benzo[d] 98 midazole-5-yl)-1-(2,6-difluorophenyl)-6-oxo-1,6-dihydropyridazine-3-carboxamide]
< 100	CC(C)C(C)(C)n1cc2c(N3C[C@H](N)C4(CC4)C3)c(NC(=O)c3ccc(=O)n(-c4c(F)cccc4F)n3)ccc2n1 [Example 248, (R)-N-(4-(7-amino-5-azaspiro[2.4]heptan-5-yl)-2-(2,3-dimethylbutan-2-yl)-2H-indazol-5-yl)-1-(2,6-difluorophenyl)-6-oxo-1,6-dihydropyridazine-3-carboxamide]
< 100	C[C@@H]1CN(c2c(NC(=O)c3ccc(=O)n(-c4c(F)cccc4F)n3)ccc3c2cnn3CC(F)(F)F)C[C@@H]1N [Example 291, N-(4-((3R,4R)-3-amino-4-methylpyrrolidin-1-yl)-1-(2,2,2-trifluoroethyl)-1H-indazol-5-yl)-1-(2,6-difluorophenyl)-6-oxo-1,6-dihydropyridazine-3-carboxamide]
< 100	C[C@@H]1CN(c2c(NC(=O)c3ccc(=O)n(-c4c(F)cccc4F)n3)ccc3nn(C(C)(C)C(C)(C)C)cc23)C[C@@H]1N [Example 245, N-(4-((3R,4R)-3-amino-4-methylpyrrolidin-1-yl)-2-(2,3,3-trimethylbutan-2-yl)-2H-indazol-5-yl)-1-(2,6-difluorophenyl)-6-oxo-1,6-dihydropyridazine-3-carboxamide]
< 100	Cn1c(C(C)(C)C)nc2c(N3CC[C@@](C)(N)C3)c(NC(=O)c3ccc(=O)n(-c4c(F)cccc4F)n3)ccc21 (single isomer, unassigned) [Example 100, ®-N-(4-(3-amino-3-methylpyrrolidin-1-yl)-2-(tert-butyl)-1-methyl-1H-benzo 111 midazolezol-5-yl)-1-(2,6-difluorophenyl)-6-oxo-1,6-dihydropyridazine-3-carboxamide]
< 100	Cc1nc2c(N3CC[C@H](N)C3)c(NC(=O)c3ccnn(-c4c(Cl)cccc4Cl)c3=O)ccc2n1C [Example 49, N-{4-[(35)-3-aminopyrrolidin-1-yl]-1,2-dimethyl-1,3-benzodiazol-5-yl}-2-(2,6-dichlorophenyl)-3-oxopyridazine-4-carboxamide hydrochloride]
< 100	NC1CCN(c2c(NC(=O)c3ccc(=O)n(-c4c(F)cccc4F)n3)ccc3c2cnn3[C@H]2CCOC2)CC1 [Example 266, (S)-N-(4-(4-aminopiperidin-1-yl)-1-(tetrahydrofuran-3-yl)-1H-indazol-5-yl)-1-(2,6-difluorophenyl)-6-oxo-1,6-dihydropyridazine-3-carboxamide]
< 100	COCCn1ncc2c(N3C[C@@H](C)[C@@H](N)C3)c(NC(=O)c3ccc(=O)n(-c4c(F)cccc4F)n3)ccc21 [Example 283, N-(4-((3R,4R)-3-amino-4-methylpyrrolidin-1-yl)-1-(2-methoxyethyl)-1H-indazol-5-yl)-1-(2,6-difluorophenyl)-6-oxo-1,6-dihydropyridazine-3-carboxamide]
< 100	C[C@H]1CN(c2c(NC(=O)c3ccc(=O)n(-c4c(F)cccc4F)n3)ccc3c2cnn3C)C[C@@H]1N [Example 173, N-(4-((3R,4S)-3-amino-4-methylpyrrolidin-1-yl)-1-methyl-1H-indazol-5-yl)-1-(2,6-difluorophenyl)-6-oxo-1,6-dihydropyridazine-3-carboxamide]
< 100	Cn1c(CC(F)(F)F)nc2c(N3CC[C@@H](N)C3)c(NC(=O)c3ccc(=O)n(-c4c(F)cccc4F)n3)ccc21 [Example 156, (R)-N-(4-(3-aminopyrrolidin-1-yl)-1-methyl-2-(2,2,2-trifluoroethyl)-1H-benzo[d]imidazol-5-yl)-1-(2,6-difluorophenyl)-6-oxo-1,6-dihydropyridazine-3-carboxamide]
< 100	Cc1nc2c(N3C[C@H](N)C4(CC4)C3)c(NC(=O)c3ccc(=O)n(-c4c(F)cccc4F)n3)ccc2n1C [Example 91, (R)-N-(4-(7-amino-5-azaspiro[2.4]heptan-5-yl)-1,2-dimethyl-1H-benzo[d]imidazol-5-yl)-1-(2,6-difluorophenyl)-6-oxo-1,6-dihydropyridazine-3-carboxamide]
< 100	N[C@H]1CN(c2c(NC(=O)c3ccc(=O)n(-c4c(F)cccc4F)n3)ccc3c2cnn3C2CC2)CC12CC2 [Example 300, (R)-N-(4-(7-amino-5-azaspiro[2.4]heptan-5-yl)-1-cyclopropyl-1H-indazol-5-yl)-1-(2,6-difluorophenyl)-6-oxo-1,6-dihydropyridazine-3-carboxamide]
< 100	C[C@H]1CN(c2c(NC(=O)c3ccc(=O)n(-c4c(F)cccc4F)n3)ccc3nn([C@H]4CCOC4)cc23)C[C@@H]1N [Example 327, N-(4-((3R,4S)-3-amino-4-methylpyrrolidin-1-yl)-2-((S)-tetrahydrofuran-3-yl)-2H-indazol-5-yl)-1-(2,6-difluorophenyl)-6-oxo-1,6-dihydropyridazine-3-carboxamide]
< 100	N[C@@H]1CCN(c2c(NC(=O)c3ccc(=O)n(-c4c(F)cccc4F)n3)ccc3c2cnn3CC(F)(F)F)C1 [Example 290, (R)-N-(4-(3-aminopyrrolidin-1-yl)-1-(2,2,2-trifluoroethyl)-1H-indazol-5-yl)-1-(2,6-difluorophenyl)-6-oxo-1,6-dihydropyridazine-3-carboxamide]
< 100	CC[C@H](C)n1ncc2c(N3C[C@@H](C)[C@@H](N)C3)c(NC(=O)c3ccc(=O)n(-c4c(F)cccc4F)n3)ccc21 [Example 256, N-(4-((3R,4R)-3-amino-4-methylpyrrolidin-1-yl)-1-((S)-sec-butyl)-1H-indazol-5-yl)-1-(2,6-difluorophenyl)-6-oxo-1,6-dihydropyridazine-3-carboxamide]
< 100	CC(C)c1nc2c(N3CC[C@@H](NC(=O)CCN)C3)c(NC(=O)c3ccc(=O)n(-c4c(F)cccc4F)n3)ccc2n1C [Example 128, (R)-N-(4-(3-(3-aminopropanamido)pyrrolidin-1-yl)-2-isopropyl-1-methyl-1H-benzo[d]imidazol-5-yl)-1-(2,6-difluorophenyl)-6-oxo-1,6-dihydropyridazine-3-carboxamide]
< 100	CC(C)n1ncc2c(N3CC[C@@H](NCCO)C3)c(NC(=O)c3ccc(=O)n(-c4c(F)cccc4F)n3)ccc21 [Example 213, (R)-1-(2,6-difluorophenyl)-N-(4-(3-((2-hydroxyethyl)amino)pyrrolidin-1-yl)-1-isopropyl-1H-indazol-5-yl)-6-oxo-1,6-dihydropyridazine-3-carboxamide]
< 100	CC[C@H]1CN(c2c(NC(=O)c3ccc(=O)n(-c4c(F)cccc4F)n3)cc(F)c3c2cnn3C(C)C)C[C@H]1N [Example 203, N-(4-((35,4S)-3-amino-4-ethylpyrrolidin-1-yl)-7-fluoro-1-isopropyl-1H-indazol-5-yl)-1-(2,6-difluorophenyl)-6-oxo-1,6-dihydropyridazine-3-carboxamide]
< 100	C[C@@H]1CN(c2c(NC(=O)c3ccc(=O)n(-c4c(F)cccc4F)n3)ccc3nn(C45CC(C4)C5)cc23)C[C@@H]1N [Example 316, N-(4-((3R,4R)-3-amino-4-methylpyrrolidin-1-yl)-2-(bicyclo[1.1.1]pentan-1-yl)-2H-indazol-5-yl)-1-(2,6-difluorophenyl)-6-oxo-1,6-dihydropyridazine-3-carboxamide]
< 100	COc1cccc(F)c1-n1cccc(C(=O)Nc2ccc3c(nc(C)n3C)c2N2CCC[C@H]2CN)c1=O [Example 54, (S)-N-(4-(2-(aminomethyl)pyrrolidin-1-yl)-1,2-dimethyl-1H-benzo[d]imidazol-5-yl)-1-(2-fluoro-6-methoxyphenyl)-2-oxo-1,2-dihydropyridine-3-carboxamide]
< 100	CC(C)c1nc2c(N3CC4[C@@H](N)[C@@H]4C3)c(NC(=O)c3ccc(=O)n(-c4c(F)cccc4F)n3)ccc2n1C (stereo partly drawn) [Example 118, N-(4-((1R,5S,6s)-6-amino-3-azabicyclo[3.1.0]hexan-3-yl)-2-isopropyl-1-methyl-1H-benzo[d]imidazol-5-yl)-1-(2,6-difluorophenyl)-6-oxo-1,6-dihydropyridazine-3-carboxamide]
< 100	CC(C)c1nc2c(N3CC[C@@](C)(O)C3)c(NC(=O)c3ccc(=O)n(-c4c(F)cccc4F)n3)ccc2n1C [Example 140, (R)-1-(2,6-difluorophenyl)-N-(4-(3-hydroxy-3-methylpyrrolidin-1-yl)-2-isopropyl-1-methyl-1H-benzo[d]imidazol-5-yl)-6-oxo-1,6-dihydropyridazine-3-carboxamide]

Structure (SMILES)	IC50 [nM]
COc1cccc(F)c1-c1nccc(C(=O)Nc2ccc3c(nc(C)n3C)c2C2C[C@H]3C[C@@H]2CN3)c1F (stereo partly drawn) [Example 7, N-(4-((1S,4S)-2-azabicyclo[2.2.1]heptan-5-yl)-1,2-dimethyl-1H-benzo[d]imidazol-5-yl)-3-fluoro-2-(2-fluoro-6-methoxyphenyl)isonicotinamide]	< 100
